Experiment: Acute toxicity in ip dosed mouse
Format: organism-based
Conditions: in vivo

## CN[C@@H]1C[C@H]2O[C@@](C)([C@@H]1OC)n1c3ccccc3c3c4c(c5c6ccccc6n2c5c31)C(=O)NC4.Cl
  LD50: 6.6 mg/kg

Reference: ChEMBL document CHEMBL1151110, “Biosynthesis of staurosporine, 1. 1H- and 13C-NMR assignments” (J Nat Prod, 1988)
